{"source": "patent US10618937B2", "about": "“Method of treating Alzheimer's disease” (INDUSTRY-ACADEMIC COOPERATION FOUNDATION GYEONGSANG …, priority 2016, dated 2020)", "key": {"normal mouse": {"tested_on": "normal mouse", "assay": "Morris water maze test in normal (wild type) mice", "type": "in vivo", "settings": "normal mouse treated with peptide, IP", "protocol": "Male C57BL/6J wild type mice and double transgenic B6.Cg-Tg (APPswe, PSENdE9) 85Dbo Mmjax (APP/PS1) AD-model mice were obtained from Jackson Laboratories (Bar Harbor, Me., USA). The brains of the double transfected mice express Swedish mutation-containing chimeric mouse-human amyloid precursor protein (Mo/HuAPP695swe) and mutant human presenilin 1 protein (PS1-dE9). The mice were fed with an unlimited supply of food and water at an animal breeding ground of a university at a temperature of 23° C., at the relative humidity of 60±10% and in the black and light cycle of 12 h/12 h. […]\nThe Morris Underwater Maze Test System was constructed as a circular water tank with a diameter of 100 cm and a height of 40 cm containing 15.5 cm depth of water (temperature of 23±1° C.) which was opaque with white ink added. […] The delay time for escaping from the water maze (the time to find the hidden escape platform) was calculated for each trial. […] For the probe experiment, the platform was removed, each mouse was allowed to freely swim for 60 seconds, the amount of time the mouse spent in the target quadrant was measured, and the number of platform positions the mouse passed by (where the platform was located during the hidden platform training). […] All data were recorded by using video-tracking software (SMART, Panlab Harward Apparatus, Bioscience Company, Holliston, Mass., USA)."}, "APP/PS1 model mice": {"tested_on": "APP/PS1 model mice", "assay": "Western blot analysis of cortex and hippocampus of APP/PS1 model mice", "type": "in vivo", "protocol": "Male C57BL/6J wild type mice and double transgenic B6.Cg-Tg (APPswe, PSENdE9) 85Dbo Mmjax (APP/PS1) AD-model mice were obtained from Jackson Laboratories (Bar Harbor, Me., USA). The brains of the double transfected mice express Swedish mutation-containing chimeric mouse-human amyloid precursor protein (Mo/HuAPP695swe) and mutant human presenilin 1 protein (PS1-dE9). The mice were fed with an unlimited supply of food and water at an animal breeding ground of a university at a temperature of 23° C., at the relative humidity of 60±10% and in the black and light cycle of 12 h/12 h. […] The maintenance and treatment for mice were performed according to the guidelines of the Animal Ethics Committee (IACUC) issued by Department of Biology, Division of Applied Life Science of Gyeongsang National University in Korea. Experiments according to the present disclosure were conducted according to the guidelines approved by the guidelines of the Animal Ethics Committee (IACUC) issued by Department of Biology, Division of Applied Life Science of Gyeongsang National University in Korea (approval ID: 125).\nThe novel peptide according to the present disclosure was dissolved in bi-deionized distilled water, and administered while being finally included in physiological saline. The novel peptide according to the present disclosure was intraperitoneal injection (IP) administered to APP/PS1 and wild-type (WT) mice in a dose of 5 mg/kg/day at an interval of 2.5 days for 30 days to 45 days. Wild-type mice and APP/PS1 transfected mice were treated with the same volume of physiological saline, and after behavioral analysis, the animal models were sacrificed for further biochemical and immunohistochemical analysis.\nProtein concentrations were measured by using a BIORAD protein assay kit (BIORAD LABORATORIES, CA, USA). Equal amounts of protein (15 to 25 μg) were electrophoresed under the same experimental conditions using 4 to 12% BLOT™ minigel and MES SDS electrophoresis buffer (running buffer) 1×(NOVEX, LIFE TECHNOLOGIES, Kiryat Shmona, Israel), and a broad range prestained protein marker (GANGNAM STAIN™, Intron Biotechnology) was used as the control for the molecular size. To reduce nonspecific binding, the membranes used were blocked with 5% (w/v) skim milk and reacted with a primary antibody (a 1:1000 dilution) overnight at 4° C. After an appropriate reaction with a horseradish peroxidase (HRP)-binding secondary antibody, proteins were detected by using an ECL detection reagent (AMERSHAM PHARMECIA BIOTECH, Uppsala, Sweden) according to the manufacturer's instructions. The X-ray film was scanned and the optical density of the band was analyzed using a densitometry using a computer-based Sigma Gel program, version 1.0 (SPSS, Chicago, Ill., USA).\nFor use as the primary antibody, anti-amyloid β (Aβ), anti-APP, anti-AdipoR1 (Adiponectin receptor 1), anti-phospho-AMPK, anti-SNAP-25 (Synaptosomal-Associated Protein 25), anti-SAP-102, anti-Syanpatophysin, phospho-Tau (Ser 413), anti-p-mTOR, anti-p-ULK1, and anti-β-actin were used."}, "[1]": {"settings": "hippocampus of APP/PS1 mice, 9 months and 12 months"}, "[2]": {"settings": "hippocampus, 9 months and 12 months"}, "[3]": {"settings": "hippocampus, 9 months and 12 months after treatment"}}, "data": [{"substance": "RGPCG (adiponectin receptor-activating peptide) [5AA1]", "values": [{"measurement": "latency (time to find the hidden escape platform)", "setting": "normal mouse", "result": "less than 10 seconds"}, {"measurement": "expression of p-ULK1 protein", "setting": "APP/PS1 model mice; APP/PS1 mice", "result": "suppression of the expression"}, {"measurement": "expression of p-mTOR protein", "setting": "APP/PS1 model mice; APP/PS1 mice", "result": "suppression of the expression"}, {"measurement": "APP in the cortex", "setting": "APP/PS1 model mice; cortex of APP/PS1 mice", "result": "statistically significantly reduced"}, {"measurement": "amyloid-β oligomer (Aβ oligomer) in the cortex", "setting": "APP/PS1 model mice; cortex of APP/PS1 mice", "result": "statistically significantly reduced"}, {"measurement": "expression level of p-Tau (Ser404)", "setting": "APP/PS1 model mice; hippocampus of APP/PS1 mice", "result": "remarkably decreased levels"}, {"measurement": "expression level of p-Tau (Ser413)", "setting": "APP/PS1 model mice; hippocampus of APP/PS1 mice", "result": "remarkably decreased levels"}, {"measurement": "expression level of AdipoR1", "setting": "APP/PS1 model mice; [1]", "result": "remarkably increased levels"}, {"measurement": "expression level of SIRT-1", "setting": "APP/PS1 model mice; [1]", "result": "remarkably increased levels"}, {"measurement": "expression level of pAMPK", "setting": "APP/PS1 model mice; [1]", "result": "remarkably increased levels"}, {"measurement": "expression level of AAP in the hippocampus", "setting": "APP/PS1 model mice; [2]", "result": "decreased"}, {"measurement": "expression level of Aβ in the hippocampus", "setting": "APP/PS1 model mice; [2]", "result": "decreased"}, {"measurement": "expression level of SAP-102", "setting": "APP/PS1 model mice; [3]", "result": "remarkably increased levels"}, {"measurement": "expression level of SNAP-25", "setting": "APP/PS1 model mice; [3]", "result": "remarkably increased levels"}, {"measurement": "expression level of Synaptophysin", "setting": "APP/PS1 model mice; [3]", "result": "remarkably increased levels"}]}]}
